Tested on: 616215-338-R-J1-PDC spheroids with HUVEC/MSC, viability
Test: Anticancer human tumor 616215-338-R-J1-PDC patient-derived colon adenocarcinoma cell line growth inhibition [PI3K]
Settings: for IC50: curve of first compound; for viability, T/C: stronger effect = lower value; active = viability on the fitted dose curve at most 10% of control; inactive = the rest
Method in brief: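 Three cell types, namely tumor cells, endothelial cells and mesenchymal stem cells, formed each spheroid. Combinations with four PI3K inhibitors were screened at clinically achievable concentrations decreasing by half-log, and spheroid viability was recorded.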

[1] = second compound 0.0316 µM, first compound 0.0316 µM
[2] = second compound 0.0316 µM, first compound 0.1 µM
[3] = second compound 0.1 µM, first compound 0.0316 µM
[4] = second compound 0.1 µM, first compound 0.1 µM
[5] = second compound 0.316 µM, first compound 0.0316 µM
[6] = second compound 0.316 µM, first compound 0.1 µM
[7] = second compound 1 µM, first compound 0.0316 µM
[8] = second compound 1 µM, first compound 0.1 µM
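Also: spheroids exposed to agents for seven days before the viability read.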

Cn1ncnc1[C@H]1c2n[nH]c(=O)c3cc(F)cc(c23)N[C@@H]1c1ccc(F)cc1 + CC(Nc1ccc2c(c1)OCCn1cc(N3C(=O)OCC3C(F)F)nc1-2)C(N)=O
> 0.1 µM: IC50 (second compound 0.00316 µM) | IC50 (second compound 0.01 µM) | IC50 (second compound 0.0316 µM) | IC50 (second compound 0.1 µM) | IC50 (second compound 0.316 µM) | IC50 (second compound 1 µM)
inactive: viability, T/C (second compound 0.00316 µM, first compound 0.000316 µM) 100% | viability, T/C (second compound 0.00316 µM, first compound 0.001 µM) 90.8% | viability, T/C (second compound 0.00316 µM, first compound 0.00316 µM) 98.3% | viability, T/C (second compound 0.00316 µM, first compound 0.01 µM) 103% | viability, T/C (second compound 0.00316 µM, first compound 0.0316 µM) 88.8% | viability, T/C (second compound 0.00316 µM, first compound 0.1 µM) 98.4% | viability, T/C (second compound 0.01 µM, first compound 0.000316 µM) 85.9% | viability, T/C (second compound 0.01 µM, first compound 0.001 µM) 90.6% | viability, T/C (second compound 0.01 µM, first compound 0.00316 µM) 91.8% | viability, T/C (second compound 0.01 µM, first compound 0.01 µM) 84% | viability, T/C (second compound 0.01 µM, first compound 0.0316 µM) 101% | viability, T/C (second compound 0.01 µM, first compound 0.1 µM) 90.5% | viability, T/C (second compound 0.0316 µM, first compound 0.000316 µM) 102% | viability, T/C (second compound 0.0316 µM, first compound 0.001 µM) 92.7% | viability, T/C (second compound 0.0316 µM, first compound 0.00316 µM) 89.8% | viability, T/C (second compound 0.0316 µM, first compound 0.01 µM) 97.6% | viability, T/C [1] 98.5% | viability, T/C [2] 93.2% | viability, T/C (second compound 0.1 µM, first compound 0.000316 µM) 97.1% | viability, T/C (second compound 0.1 µM, first compound 0.001 µM) 92.4% | viability, T/C (second compound 0.1 µM, first compound 0.00316 µM) 104% | viability, T/C (second compound 0.1 µM, first compound 0.01 µM) 103% | viability, T/C [3] 94.8% | viability, T/C [4] 88.9% | viability, T/C (second compound 0.316 µM, first compound 0.000316 µM) 112% | viability, T/C (second compound 0.316 µM, first compound 0.001 µM) 90.6% | viability, T/C (second compound 0.316 µM, first compound 0.00316 µM) 93.5% | viability, T/C (second compound 0.316 µM, first compound 0.01 µM) 99.4% | viability, T/C [5] 90% | viability, T/C [6] 88.7% | viability, T/C (second compound 1 µM, first compound 0.000316 µM) 96.2% | viability, T/C (second compound 1 µM, first compound 0.001 µM) 99.3% | viability, T/C (second compound 1 µM, first compound 0.00316 µM) 116% | viability, T/C (second compound 1 µM, first compound 0.01 µM) 89.6% | viability, T/C [7] 87.7% | viability, T/C [8] 76.2%

C#Cc1c(F)ccc2cc(O)cc(-c3ncc4c(N5CC6CCC(C5)N6)nc(OCC56CCCN5CC(F)C6)nc4c3F)c12 (centres undefined) + Cc1nc(NC(=O)N2CCCC2C(N)=O)sc1-c1ccnc(C(C)(C)C(F)(F)F)c1
> 10 µM: IC50 (second compound 0.0316 µM) | IC50 (second compound 0.1 µM) | IC50 (second compound 0.316 µM) | IC50 (second compound 1 µM) | IC50 (second compound 3.16 µM)
9.14 µM: IC50 (second compound 10 µM)
inactive: viability, T/C [1] 108% | viability, T/C [2] 106% | viability, T/C (second compound 0.0316 µM, first compound 0.316 µM) 102% | viability, T/C (second compound 0.0316 µM, first compound 1 µM) 93.3% | viability, T/C (second compound 0.0316 µM, first compound 3.16 µM) 82% | viability, T/C (second compound 0.0316 µM, first compound 10 µM) 67.6% | viability, T/C [3] 97.2% | viability, T/C [4] 104% | viability, T/C (second compound 0.1 µM, first compound 0.316 µM) 100% | viability, T/C (second compound 0.1 µM, first compound 1 µM) 104% | viability, T/C (second compound 0.1 µM, first compound 3.16 µM) 96.1% | viability, T/C (second compound 0.1 µM, first compound 10 µM) 54.5% | viability, T/C [5] 95.3% | viability, T/C [6] 99.2% | viability, T/C (second compound 0.316 µM, first compound 0.316 µM) 96.4% | viability, T/C (second compound 0.316 µM, first compound 1 µM) 84.8% | viability, T/C (second compound 0.316 µM, first compound 3.16 µM) 86.3% | viability, T/C (second compound 0.316 µM, first compound 10 µM) 54.9% | viability, T/C [7] 110% | viability, T/C [8] 101% | viability, T/C (second compound 1 µM, first compound 0.316 µM) 91.2% | viability, T/C (second compound 1 µM, first compound 1 µM) 89.9% | viability, T/C (second compound 1 µM, first compound 3.16 µM) 74.6% | viability, T/C (second compound 1 µM, first compound 10 µM) 63.6% | viability, T/C (second compound 3.16 µM, first compound 0.0316 µM) 112% | viability, T/C (second compound 3.16 µM, first compound 0.1 µM) 104% | viability, T/C (second compound 3.16 µM, first compound 0.316 µM) 93.8% | viability, T/C (second compound 3.16 µM, first compound 1 µM) 85.1% | viability, T/C (second compound 3.16 µM, first compound 3.16 µM) 78.1% | viability, T/C (second compound 3.16 µM, first compound 10 µM) 53% | viability, T/C (second compound 10 µM, first compound 0.0316 µM) 88.3% | viability, T/C (second compound 10 µM, first compound 0.1 µM) 93.2% | viability, T/C (second compound 10 µM, first compound 0.316 µM) 93.5% | viability, T/C (second compound 10 µM, first compound 1 µM) 88.9% | viability, T/C (second compound 10 µM, first compound 3.16 µM) 82.5% | viability, T/C (second compound 10 µM, first compound 10 µM) 47.1%

Source: PubChem BioAssay AID1963978 (Molecular Pharmacology Branch, DTP, NCI, 2024)
